Results on one compound are retold here after US9433572B2, “Pomegranate based skin protectant and topical application” (POM Wonderful, LLC, priority 2008, dated 2016).

This assay relates to lipid peroxyl radicals. The experiment in a line: In vivo bleaching of beta-carotene applied to the skin under UVA (lipid peroxyl radical scavenging). To be noted: human forearm skin, 2 mg/cm^2, UVA. As for the experimental part:
The protective effect of pomegranate-derived skin cream from the Example 4 was determined by assessing lipid peroxyl free radical scavenging capacity on the skin. Free radicals have been implicated in many of undesirable aspects of skin aging whether due to intrinsic cause or to exposure to UV radiation. Carotenoids like beta-carotene are efficient antioxidants scavenging singlet molecular oxygen and peroxyl radicals generated in during photooxidation. The bleaching of carotenoids has been used to evaluate the auto-oxidation activity of natural products. This technique can be used to evaluate, in vivo in non-invasive way, the ability of skin cream products to scavenge lipid peroxyl radicals. Basically, the method includes measuring the bleaching of beta-carotene applied to the skin when irradiated by UVA. […] An individual skin type is determined by an Individual Topology Angle (ITA), which can be found by using the following formula: […]*)×180/3.1415. Dr. Scholl's® Round Adhesive callus pad (Schering-Plough, Kenilworth, N.J.) were placed on the volar surface of the designated forearm (pre-cleaned with alcohol) of subjects. […] A baseline chromameter reading is taken after all of the callus pads have been applied. 2 mg/cm^2 of test skin cream and the positive control are applied in duplicate to each of the 2 sites. This is accomplished by means of a pre-calibrated syringe or by weighing the appropriate test material amount in a weigh boat. The test product and positive control are allowed to set on the forearm at ambient temperature for 15 minutes. The chromameter is used to measure the b* parameter of the coloration of the treated skin. Measurements are taken on the treated and untreated sites. The beta-carotene solution is then applied by means of a finger cot to obtain a uniform, homgeous orange color on all sites (pre-treated and non-treated), excluding the two control sites. The chromameter is used to measure the b* component of each site, post-application of the beta-carotene. […] The total exposure to UVA radiation is 6.0 J/cm^2. […]

As to `CC1=C(/C=C/C(C)=C/C=C/C(C)=C/C=C/C=C(C)/C=C/C=C(C)/C=C/C2=C(C)CCCC2(C)C)C(C)(C)CCC1` [®-carotene, beta-carotene], the “Mean of Color Index” value stood at 42% (at 10 minutes), 16% (at 30 minutes) and 0% (at 60 minutes).
